The values that follow come from EP2488529B1, “Spirocyclic derivatives as histone deacetylase inhibitors” (DAC S.r.l., priority 2009, dated 2011).

The target in one assay is HDAC. Description: Assay of enzyme inhibition of HDAC (BIOMOL kit, fluorescence). In kind it is biochemical. Conditions: nuclear fraction of Hela cells; substrate 200 µM; 15 min at RT. Here is the method: The in-vitro activity of HDAC inhibitors was assayed using a BIOMOL Kit, according to the instructions from the manufacturer (Biomolecular Research Laborator). 15 µl of 30 x diluted nuclear fraction of Hela cells, was diluted to 50 µl with the assay buffer containing the HDAC inhibitor and the substrate (lysine with acetylated amino group on the side chain) at a concentration of 200 µM. The samples were incubated for 15 min at RT and then exposed to a developer (10 min at RT). In this last step a fluorophore was produced, whose fluorescence was measured using an excitation wavelength of 355 nm and an emission at 460 nm. The IC50 was calculated using GraphPad Software.

In the next assay the test system is HCT-116. Nature of the assay: Cell growth, CellTiter-Glo Luminescent Cell Viability Assay (antiproliferative assay). Format: cell-based. Conditions: Homo sapiens; HCT-116 cells, incubated for 72 h; read-out: HCT116 IC50. The text has this:
(§1) CellTiter-Glo® Luminescent Cell Viability Assay (Promega) is a homogeneous method of determining the number of viable cells in culture based on quantitation of the present ATP, which indicates the presence of metabolically active cells. The homogeneous assay procedure involves addition of a single reagent (CellTiter-Glo® Reagent) directly to the cells, which leads to cell lysis and generation of a luminescent signal proportional to the amount of the ATP and the number of cells present in culture. The assay relies on the properties of a proprietary thermostable luciferase (Ultra-Glo® recombinant luciferase), which generates a luminescent signal. K562, A549, and HCT-116 cells, in exponential growth, were incubated for 72 h with different concentrations of the inhibitors. After 72 h, a volume of CellTiter-Glo® Reagent equal to the volume of cell culture medium was added. The content was mixed for 2 min to induce cell lysis. The luminescence was recorded after further 10 min at RT in order to obtain a stable luminescent signal.
(§2) The IC50 was calculated using GraphPad Software.
In general terms: In ATP-based viability assays light output follows the ATP content of the culture.

The test system of another assay is K562. The description is as above. Format: cell-based. Conditions: Homo sapiens; K562 cells, incubated for 72 h.
Description: as §1, §2

The next assay has as its system A549. The description is as above. Format: cell-based. Conditions: Homo sapiens; A549 cells, incubated for 72 h.
Description: as §1, §2

One may read the IC50 as the concentration needed to halve the response being measured. Regarding `O=C(/C=C/c1ccc2c(c1)C(=O)CC1(CCNC1)O2)NO` (racemic) [Example 1, (±)-(E)-3-[4-Oxo-spiro(chromane-2,3'-pyrrolidine)-6-yl]-N-hydroxy-acrylamide], the IC50 against HDAC is 0.1 to 1 µM; in the assay with HCT-116, 1 to 3 µM; in the assay on K562, at least 3 µM; with A549, 1 to 3 µM.

For `O=C(/C=C/c1ccc2c(c1)C(=O)CC1(CCN(Cc3ccccc3)C1)O2)NO` (racemic) [Example 2, (±)-(E)-3-[1'-Benzyl-4-oxo-spiro(chromane-2,3'-pyrrolidine)-6-yl]-N-hydroxy-acrylamide], the half-inhibitory concentration (IC50) on HDAC was at most 0.1 µM; with HCT-116 it was at most 1 µM; in the assay on K562, at most 1 µM; in the assay with A549, at most 1 µM.

`CC(=O)N1CCC2(CC(=O)c3cc(/C=C/C(=O)NO)ccc3O2)C1` (racemic) [Example 5, (±)-(E)-3-[1'-Acetyl-4-oxo-spiro(chromane-2,3'-pyrrolidine)-6-yl]-N-hydroxy-acrylamide]: the IC50 on HDAC is 0.1 to 1 µM; in the assay with HCT-116, at least 3 µM; with K562, at least 3 µM; with A549 it was at least 3 µM.

With `O=C(/C=C/c1ccc2c(c1)C(=O)CC1(CCN(C(=O)c3ccccc3)C1)O2)NO` (racemic) [Example 6, (±)-(E)-3-[1'-Benzoyl-4-oxo-spiro(chromane-2,3'-pyrrolidine)-6-yl]-N-hydroxy-acrylamide], the IC50 at HDAC was 0.1 to 1 µM; with HCT-116 it was at most 1 µM; with K562, at most 1 µM; in the assay on A549, 1 to 3 µM.

For `CN1CCC2(CC(=O)c3cc(/C=C/C(=O)NO)ccc3O2)C1` (racemic) [Example 7, (±)-(E)-3-[1'-Methyl-4-oxo-spiro(chromane-2,3'-pyrrolidine)-6-yl]-N-hydroxy-acrylamide], the IC50 against HDAC was 0.1 to 1 µM; in the assay with HCT-116, at most 1 µM; in the assay with K562, at most 1 µM; in the assay on A549, at most 1 µM.

Regarding `CCOC(=O)N1CCC2(CC(=O)c3cc(/C=C/C(=O)NO)ccc3O2)C1` (racemic) [Example 8, (±)-(E)-3-[1'-Ethyloxycarbonyl-4-oxo-spiro(chromane-2,3'-pyrrolidine)-6-yl]-N-hydroxy-acrylamide], the IC50 is 0.1 to 1 µM against HDAC, at most 1 µM in the assay with HCT-116, at most 1 µM in the assay with K562 and at most 1 µM in the assay with A549.

On to `O=C(/C=C/c1ccc2c(c1)C(=O)CC1(CCN(CCc3ccccc3)C1)O2)NO` (racemic) [Example 9, (±)-(E)-3-[1'-(2-Phenyl-ethyl)-4-oxo-spiro(chromane-2,3'-pyrrolidine)-6-yl]-N-hydroxy-acrylamide], for which the IC50 on HDAC is at most 0.1 µM; with HCT-116, at most 1 µM; in the assay with K562, at most 1 µM; in the assay on A549 it was at most 1 µM.

For `Cn1cc(CN2CCC3(CC(=O)c4cc(/C=C/C(=O)NO)ccc4O3)C2)c2ccccc21` (racemic) [Example 10, (±)-(E)-3-[1'-(1-Methyl-1H-indol-3-ylmethyl)-4-oxo-spiro(chromane-2,3'-pyrrolidine)-6-yl]-N-hydroxy-acrylamide], the IC50 against HDAC was at most 0.1 µM; with HCT-116 it was at most 1 µM; in the assay on K562 it was at most 1 µM; in the assay with A549 it was at most 1 µM.

For the compound `O=C(/C=C/c1ccc2c(c1)C(=O)CC1(CCN(Cc3ccc(F)cc3)C1)O2)NO` (racemic) [Example 11, (±)-(E)-3-[1'-(4-Fluoro-benzyl)-4-oxo-spiro(chromane-2,3'-pyrrolidine)-6-yl]-N-hydroxy-acrylamide], the IC50 is 0.1 to 1 µM at HDAC, at most 1 µM in the assay on HCT-116, at most 1 µM in the assay with K562 and at most 1 µM in the assay on A549.

For the compound `O=C(/C=C/c1ccc2c(c1)C(=O)CC1(CCCNC1)O2)NO` (racemic) [Example 12, (±)-(E)-3-[4-Oxo-spiro(chromane-2,3'-piperidine)-6-yl]-N-hydroxy-acrylamide], the IC50 against HDAC is 0.1 to 1 µM; in the assay on HCT-116, at most 1 µM; in the assay with K562, at most 1 µM; in the assay on A549 it was at most 1 µM.

Consider `O=C(/C=C/c1ccc2c(c1)C(=O)CC1(CCCN(Cc3ccccc3)C1)O2)NO` (racemic) [Example 13, (±)-(E)-3-[1'-Benzyl-4-oxo-spiro(chromane-2,3'-piperidine)-6-yl]-N-hydroxy-acrylamide], for which the IC50 at HDAC is at most 0.1 µM; in the assay on HCT-116, at most 1 µM; with K562, at most 1 µM; in the assay with A549, at most 1 µM.

In the case of `CN1CCCC2(CC(=O)c3cc(/C=C/C(=O)NO)ccc3O2)C1` (racemic) [Example 14, (±)-(E)-3-[1'-Methyl-4-oxo-spiro(chromane-2,3'-piperidine)-6-yl]-N-hydroxy-acrylamide], the IC50 against HDAC was 0.1 to 1 µM; in the assay with HCT-116, at most 1 µM; in the assay on K562 it was at most 1 µM; in the assay on A549, at most 1 µM.

In the case of `CCOC(=O)N1CCCC2(CC(=O)c3cc(/C=C/C(=O)NO)ccc3O2)C1` (racemic) [Example 15, (±)-(E)-3-[1'-Ethyloxycarbonyl-4-oxo-spiro(chromane-2,3'-piperidine)-6-yl]-N-hydroxy-acrylamide], the IC50 against HDAC was 0.1 to 1 µM; in the assay on HCT-116 it was at most 1 µM; with K562, at most 1 µM; in the assay with A549 it was 1 to 3 µM.

Turning to `CC(=O)N1CCCC2(CC(=O)c3cc(/C=C/C(=O)NO)ccc3O2)C1` (racemic) [Example 16, (±)-(E)-3-[1'-Acetyl-4-oxo-spiro(chromane-2,3'-piperidine)-6-yl]-N-hydroxy-acrylamide], the IC50 at HDAC is 0.1 to 1 µM; with HCT-116, at least 3 µM; in the assay on K562, at least 3 µM; with A549 it was at least 3 µM.

Consider `O=C(/C=C/c1ccc2c(c1)C(=O)CC1(CCCN(Cc3ccc(F)cc3)C1)O2)NO` (racemic) [Example 19, (±)-(E)-3-[1'-(4-Fluoro-benzyl)-4-oxo-spiro(chromane-2,3'-piperidine)-6-yl]-N-hydroxy-acrylamide], for which the IC50 against HDAC is at most 0.1 µM; in the assay with HCT-116, at most 1 µM; with K562 it was at most 1 µM; in the assay with A549, 1 to 3 µM.

For `O=C(/C=C/c1ccc2c(c1)C(=O)CC1(CCCN(CCc3ccccc3)C1)O2)NO` (racemic) [Example 20, (±)-(E)-3-[1'-(2-Phenyl-ethyl)-4-oxo-spiro(chromane-2,3'-piperidine)-6-yl]-N-hydroxy-acrylamide], the IC50 is at most 0.1 µM at HDAC, at most 1 µM in the assay with HCT-116, at most 1 µM with K562 and at most 1 µM in the assay on A549.

As to `O=C(/C=C/c1ccc2c(c1)C(=O)CC1(CCCN(C(=O)c3ccccc3)C1)O2)NO` (racemic) [Example 21, (±)-(E)-3-[1'-Benzoyl-4-oxo-spiro(chromane-2,3'-piperidine)-6-yl]-N-hydroxy-acrylamide], the 50% inhibitory concentration (IC50) is 0.1 to 1 µM on HDAC, 1 to 3 µM with HCT-116, 1 to 3 µM in the assay on K562 and at least 3 µM with A549.

Turning to `O=C(/C=C/c1ccc2c(c1)C(=O)CC1(CCCNCC1)O2)NO` (racemic) [Example 22, (±)-(E)-3-[4-Oxo-spiro(chromane-2,4'-azepane)-6-yl]-N-hydroxy-acrylamide], the IC50 was 0.1 to 1 µM at HDAC, 1 to 3 µM in the assay with HCT-116, at least 3 µM in the assay with K562 and at least 3 µM in the assay on A549.

As for `O=C(/C=C/c1ccc2c(c1)C(=O)CC1(CCCN(Cc3ccccc3)CC1)O2)NO` (racemic) [Example 23, (±)-(E)-3-[1'-Benzyl-4-oxo-spiro(chromane-2,4'-azepane)-6-yl]-N-hydroxy-acrylamide], the IC50 on HDAC was at most 0.1 µM; with HCT-116, at most 1 µM; with K562 it was at most 1 µM; with A549, at most 1 µM.

For the compound `CC(=O)N1CCCC2(CC1)CC(=O)c1cc(/C=C/C(=O)NO)ccc1O2` (racemic) [Example 24, (±)-(E)-3-[1'-Acetyl-4-oxo-spiro(chromane-2,4'-azepane)-6-yl]-N-hydroxy-acrylamide], the IC50 against HDAC is 0.1 to 1 µM; in the assay on HCT-116, at least 3 µM; in the assay on K562, at least 3 µM; in the assay on A549, at least 3 µM.

On to `O=C(/C=C/c1ccc2c(c1)C(=O)CC1(CCCN(C(=O)c3ccccc3)CC1)O2)NO` (racemic) [Example 25, (±)-(E)-3-[1'-Benzoyl-4-oxo-spiro(chromane-2,4'-azepane)-6-yl]-N-hydroxy-acrylamide], for which the IC50 was 0.1 to 1 µM against HDAC, at most 1 µM in the assay with HCT-116, 1 to 3 µM in the assay with K562 and at least 3 µM with A549.

In the case of `Cn1cc(CN2CCCC3(CC2)CC(=O)c2cc(/C=C/C(=O)NO)ccc2O3)c2ccccc21` (racemic) [Example 47, (±)-(E)-3-[1'-(1-Methyl-1H-indol-3-ylmethyl)-4-oxo-spiro(chromane-2,4'-azepane)-6-yl]-N-hydroxy-acrylamide], at HDAC, the IC50 was in the range of 0.1 to 1 µM.

In the case of `CCN1CCCC2(CC(=O)c3cc(/C=C/C(=O)NO)ccc3O2)C1` (racemic) [Example 48, (±)-(E)-3-[1'-Ethyl-4-oxo-spiro(chromane-2,3'-piperidine)-6-yl]-N-hydroxy-acrylamide], the IC50 against HDAC lay within 0.1 to 1 µM.
